Laboratory results published in patent US6440935B1, “Inhibition of eucaryotic pathogens and neoplasms and stimulation of fibroblasts and lymphocytes with lytic peptides” (priority 1987, dated 2002).
Values joined by “and” are separate entries in the source; they are usually repeats but may differ in a detail not shown here. Equal values may be shown once. Read-outs that look alike come from different tables or passages of the source. Residues, ends and D or L forms follow the SMILES beside them.

Legend:
[1] = test system: T. cruzi intracellular amastigotes in Vero cells; experiment: In vitro effect on T. cruzi intracellular amastigotes in Vero cells; format: cell-based, Trypanosoma cruzi; conditions: one hour period, relative to no peptide
Experimental: Vero cells at 10^5 cells/ml in MEM-FBS were mixed with Trypanosoma Cruzi in the trypomastigote stage at 10^5 cells/ml in the same medium at a 1:1 ratio of Vero cells to trypomastigotes. The mixture of Vero cells and trypomastigotes was cultured at 37° C. in a 5% CO2 atmosphere in microscope slide chambers. At 24 hours, cecropin SB-37 was added to the chambers, except for a set of controls, at a final concentration of 100 μM. […]

[2] = EL-4 cell viability by trypan blue exclusion; format: cell-based; conditions: one hour, 95% at 0 μM
Experimental: (§1) EL-4 lymphoma cells were suspended in RPMI 1640 at 5,000,000/ml with 500,000 cells per well. Various concentrations of cecropin SB-37 and Shiva 1 were added and the wells incubated at 37° C. in a 5% CO2 atmosphere for one hour. Viability was determined by microscopic observation for trypan blue exclusion.

[3] = test system: EL-4 cells; experiment: EL-4 cytotoxicity by chromium release; format: cell-based; conditions: 30 minutes, 10^6 EL-4 cells
Experimental: The EL-4 cells were then incubated for 30 minutes in the presence of various peptides at different concentrations. Cytotoxicity was taken as a percentage of chromium released (measured in the culture supernatant) relative to the chromium released by EL-4 cells lysed by detergent.
Similar chromium release data were obtained using the same procedure with a 100 μM concentration of peptide, but with EL-4 cell concentrations of 2×10^6, 10^6, and 5×10^5 cells in 0.5 ml medium.
The chromium release data was also obtained by using the supernatant from unlabeled EL-4 cells cultured for 30 minutes in the presence of 100 μM peptide as medium for […] EL-4 cultured as described above. The percent cytotoxicity calculated as described above was 20.16 for cecropin SB-37, 19.73 for *cecropin SB-37, 41.96 for Shiva 1, and 106.67 for melittin.

[4] = Viability by trypan blue exclusion, SP2 cells; format: cell-based, mouse; conditions: 100 μM
Experimental: as §1
(§2) The procedure of Example 5 was repeated with 50 and 200 μM cecropin SB-37 using SP2 mouse lymphoma cells, KG-1 human leukemia cells, Daudi human Burkitt's lymphoma cells, non-adherent normal human lymphocytes and adherent 3T3 […] fibroblasts. Viability was determined by microscopic observation for trypan blue exclusion.
(§3) This procedure was repeated with 100 μM cecropin SB-37 using non-adherent normal human lymphocytes, Daudi human Burkitt's lymphoma cells, KG-1 human leukemia cells, U937 human monocytic leukemia cells, and SP2 murine myeloma cells, and determining viability by the trypan blue exclusion method at 15, 30 and 60 minutes following addition of the peptide.

[5] = test system: SP2 mouse lymphoma cells; experiment: Viability by trypan blue exclusion, SP2 cells; format: cell-based
Experimental: as §1, §2, §3

[6] = Viability by trypan blue exclusion, KG-1 cells; format: cell-based, human; conditions: 100 μM
Experimental: as §1, §2, §3

[7] = test system: KG-1 human leukemia cells; experiment: Viability by trypan blue exclusion, KG-1 cells; format: cell-based
Experimental: as §1, §2, §3

[8] = Viability by trypan blue exclusion, Daudi cells; format: cell-based, human; conditions: 100 μM
Experimental: as §1, §2, §3

[9] = test system: Daudi human Burkitt's lymphoma cells; experiment: Viability by trypan blue exclusion, Daudi cells; format: cell-based
Experimental: as §1, §2, §3

[10] = Viability by trypan blue exclusion, normal lymphocytes; format: cell-based, human; conditions: 100 μM
Experimental: as §1, §2, §3

[11] = test system: non-adherent normal human lymphocytes; experiment: as above; format: cell-based
Experimental: as §1, §2, §3

[12] = In vivo screening on mice; design: species or system BALB/C mice; conditions: for WBC Count: 110 mg/kg per day i.m. for 6 days, Mouse 1, 2, 3
Experimental: Nine BALB/C mice, 4 to 5 weeks of age, maintained on commercial rodent ration fed ad libidum and in general good health were each inoculated with 1.76 mg/day of cecropin SB-37 in PBS intramuscularly for 4 consecutive days. No other change was made in diet or conditions. […] At the end of the fourth day, three were sacrificed and examined. After 30 days, three were given an additional 1.76 mg of cecropin SB-37 each.
The remaining mice were all sacrificed 7 days after the last inoculation.
Following the above procedure, three BALB/C mice were given 110 mg/kg of body weight per day of cecropin SB-37 injected intramuscularly in balanced salt solution for 6 days. Ten days after the last inoculation, the mice were again injected intramuscularly with 110 mg/kg of body weight with cecropin SB-37. […] All three mice were sacrificed 7 days after the final inoculation and tissues were examined.

[13] = test system: Pseudomonas syringae pv. tabaci; experiment: Plant pathogen LD50 in cecropin SB-37/lysozyme; format: cell-based; conditions: incubation at 30° C.
[14] = test system: Erwinia caratovora subsp. carotova; experiment: Plant pathogen LD50 in cecropin SB-37/lysozyme; format: cell-based; conditions: incubation at 30° C.
[15] = test system: Xanthomonas campestris pv. campestris; experiment: Plant pathogen LD50 in cecropin SB-37/lysozyme; format: cell-based; conditions: incubation at 30° C.
[16] = test system: Plasmodium falciparum in human red blood cells; conditions: 24-hour period, relative to untreated infected red blood cells
[17] = test system: Pseudomonas solanacearum
[18] = S. intermedius 19930 viability in lytic peptide/lysozyme; conditions: Viability (%), lysozyme at ten times

## CC[C@H](C)[C@H](NC(=O)CNC(=O)[C@H](CC(N)=O)NC(=O)[C@H](CCCNC(=N)N)NC(=O)[C@@H](NC(=O)[C@H](CC(N)=O)NC(=O)[C@H](CCCNC(=N)N)NC(=O)CNC(=O)[C@H](CCSC)NC(=O)[C@H](CCCCN)NC(=O)[C@H](CCC(=O)O)NC(=O)[C@@H](NC(=O)[C@H](CCCCN)NC(=O)[C@H](CCCCN)NC(=O)[C@H](Cc1ccccc1)NC(=O)[C@@H](NC(=O)[C@H](CCCCN)NC(=O)[C@H](Cc1c[nH]c2ccccc12)NC(=O)[C@H](CCCCN)NC(=O)[C@@H]1CCCN1C(=O)[C@@H](N)CCSC)C(C)C)[C@@H](C)CC)[C@@H](C)CC)C(=O)N[C@H](C(=O)N[C@@H](CCCCN)C(=O)N[C@@H](C)C(=O)NCC(=O)N1CCC[C@H]1C(=O)N[C@@H](C)C(=O)N[C@H](C(=O)N[C@@H](C)C(=O)N[C@H](C(=O)N[C@@H](CC(C)C)C(=O)NCC(=O)N[C@@H](CCC(=O)O)C(=O)N[C@@H](C)C(=O)N[C@@H](CCCCN)C(=O)N[C@@H](C)C(=O)N[C@@H](CC(C)C)C(=O)NCC(N)=O)C(C)C)[C@@H](C)CC)C(C)C [Cecropin SB-37] (H-MPKWKVFKKIEKMGRNIRNGIVKAGPAIAVLGEAKALG-NH2)
[1]
  LD50 (concentration for 50% reduction in number of infected Vero cells): about 90 μM
[2]; 10 μM
  viability: 90%
[2]; 25 μM
  viability: 90%
[2]; 50 μM
  viability: 75%
[2]; 100 μM
  viability: 20%
[3]; 10 μM
  Percent Cytotoxicity (chromium release vs detergent-lysed cells): 0.0%
[3]; 25 μM
  Percent Cytotoxicity (chromium release vs detergent-lysed cells): 4.49%
[3]; 50 μM
  Percent Cytotoxicity (chromium release vs detergent-lysed cells): 6.63%
[3]; 100 μM
  Percent Cytotoxicity (chromium release vs detergent-lysed cells): 36.42%
[4]; 15 min.
  viability at 100 µM: 100%
[4]; 30 min.
  viability at 100 µM: 40%
[4]; 60 min.
  viability at 100 µM: 10%
[5]; 50 μM
  Survival (percent): 20%
[5]; 100 μM
  Survival (percent): 5%
[6]; 15 min.
  viability at 100 µM: 50%
[6]; 30 min.
  viability at 100 µM: 75%
[6]; 60 min.
  viability at 100 µM: 50%
[7]; 50 μM
  Survival (percent): 95%
[7]; 100 μM
  Survival (percent): 0%
[8]; 15 min.
  viability at 100 µM: 70%
[8]; 30 min.
  viability at 100 µM: 70%
[8]; 60 min.
  viability at 100 µM: 65%
[9]; 50 μM
  Survival (percent): 85%
[9]; 100 μM
  Survival (percent): 0%
[10]; 15 min.
  viability at 100 µM: 75%
[10]; 30 min.
  viability at 100 µM: 80%
[10]; 60 min.
  viability at 100 µM: 85%
[11]; 50 μM
  Survival (percent): 100%
[11]; 100 μM
  Survival (percent): 30%
[12]; 1.76 mg/day intramuscularly, 4 consecutive days, observed twice daily
  adverse reactions: no adverse reactions were noted
[12]; 1.76 mg/day regimen
  antibody to cecropin SB-37: None of these mice produced detectable levels of antibody
[12]; 1.76 mg/day regimen, sacrificed 7 days after the last inoculation
  examination of organs and tissues: no gross pathological changes were present
[12]; Day 1
  WBC Count: 13 10^3/ml and 9 10^3/ml
[12]; Day 3
  WBC Count: 14 10^3/ml and 9 10^3/ml and 10 10^3/ml
[12]; Day 5
  WBC Count: 15 10^3/ml and 19 10^3/ml
[12]; Day 8
  WBC Count: 21 10^3/ml
[12]; Day 11
  WBC Count: 23 10^3/ml and 20 10^3/ml
[12]; 110 mg/kg per day intramuscularly for 6 days, again ten days later
  adverse effects: no adverse effects
[12]; 110 mg/kg regimen
  cecropin SB-37 antibodies: No cecropin SB-37 antibodies were detected
[12]; 110 mg/kg regimen, sacrificed 7 days after the final inoculation
  examination of tissues: enlarged spleens but were otherwise unremarkable
[12]; additional 1.76 mg after 30 days
  adverse reactions: No adverse reactions were noted
[13]
  LD50: 5.20 µM
[14]
  LD50: 1.48 µM
[15]
  LD50: 0.57 µM
other
  viability: 0%
  viability at 0.01 µM: 100%
  viability at 0.1 µM: 79.4%
  viability at 1 µM: 48.8%
  viability at 5 µM: 38.5%
  viability at 7.5 µM: 0.7%
[16]
  LD50 (concentration for 50% reduction in 3H-hypoxanthine uptake): about 22.5 μM
[17]
  LD50: 64.0 µM
[18]; peptide concentration 0.01 μM
  viability at 0.01 µM: 100%
[18]; peptide concentration 0.1 μM
  viability at 0.1 µM: 94.7%
[18]; peptide concentration 0.5 μM
  viability at 0.5 µM: 69.4%
[18]; peptide concentration 1.0 μM
  viability at 1 µM: 42.5%
[18]; peptide concentration 5.0 μM
  viability at 5 µM: 36.1%
[18]; peptide concentration 10. μM
  viability: 5.6%
[18]; peptide concentration 50. μM
  viability: 0%
